Data from ChEMBL document CHEMBL4811216, “Chemotherapy for human schistosomiasis: how far have we come? What's new? Where do we go from here?” (RSC Med Chem, 2020).

Tests used:
Schistosoma mansoni [1] = experiment: Antischistosomal activity against Schistosoma mansoni Liberian assessed as reduction in worm motor activity incubated for 72 hrs measured every 24 hrs by microscopic method relative to control; format: functional, organism-based
Schistosoma mansoni [2] = experiment: Antischistosomal activity against Schistosoma mansoni Liberian assessed as reduction in egg production incubated for 72 hrs measured every 24 hrs; format: functional, organism-based
Schistosoma mansoni [3] = experiment: Antischistosomal activity against Schistosoma mansoni Liberian assessed as worm death at 20 uM incubated for 72 hrs measured every 24 hrs by microscopic method relative to control; format: functional
Schistosoma mansoni [4] = experiment: Antischistosomal activity against Schistosoma mansoni BH infected in Balb/C mouse assessed as reduction in worm burden at 100 mg/kg, po measured after 2 weeks by Kato-Katz quantitative method; format: functional; design: Activity: scale not given: the % may be the effect or the level left
Schistosoma mansoni [5] = experiment: Antischistosomal activity against Schistosoma mansoni BH assessed as tegument damage at 12.5 to 100 uM measured up to 72 hrs by confocal laser scanning microscopic method relative to control; format: functional; details: dose 12.5-100 µM, time hrs <=72
Schistosoma mansoni [6] = experiment: Antischistosomal activity against Schistosoma mansoni BH assessed as reduction in motor activity at 12.5 to 100 uM measured up to 72 hrs by light microscopic method relative to control; format: functional; design: scale not given: the % may be the effect or the level left; details: dose 12.5-100 µM, time hrs <=72
Schistosoma mansoni [7] = experiment: Antischistosomal activity against Schistosoma mansoni BH assessed as worm death at 12.5 to 100 uM measured up to 72 hrs by light microscopic method relative to control; format: functional; details: dose 12.5-100 µM, time hrs <=72
Schistosoma mansoni [8] = experiment: Antischistosomal activity against Schistosoma mansoni LE assessed as worm mortality at 200 uM measured after 24 hrs relative to control; format: functional
Schistosoma mansoni [9] = experiment: Antischistosomal activity against Schistosoma mansoni LE assessed as reduction in worm motor activity at 100 uM measured after 72 hrs relative to control; format: functional; design: scale not given: the % may be the effect or the level left
Schistosoma mansoni [10] = experiment: Antischistosomal activity against Schistosoma mansoni Egyptian assessed as reduction in motor activity at 50 to 200 ug/ml incubated upto 72 hrs by stereomicroscopy; format: functional; design: scale not given: the % may be the effect or the level left; details: dose 50-200 µg/ml; time hrs <=72; at 50 to 200 µg/mL
Schistosoma mansoni [11] = experiment: Antischistosomal activity against Schistosoma mansoni Egyptian assessed as worm death at 50 to 200 ug/ml incubated upto 72 hrs by stereomicroscopy; format: functional; details: dose 50-200 µg/ml; time hrs <=72; at 50 to 200 µg/mL
Schistosoma mansoni [12] = experiment: Antischistosomal activity against Schistosoma mansoni Egyptian assessed as reduction in egg production at 50 to 200 ug/ml incubated upto 72 hrs by microscopic method relative to control; format: functional; design: scale not given: the % may be the effect or the level left; details: dose 50-200 µg/ml; time hrs <=72; at 50 to 200 µg/mL
Schistosoma mansoni [13] = experiment: Antischistosomal activity against Schistosoma mansoni infected in MF1 swiss albino mouse assessed as worm burden reduction at 200 mg/kg, po measured after 2 weeks by stereomicroscopy relative to control; format: functional; design: scale not given: the % may be the effect or the level left
Schistosoma mansoni [14] = experiment: Antischistosomal activity against Schistosoma mansoni Egyptian assessed as tegument damage at 50 to 200 ug/ml incubated upto 72 hrs by inverted microscopy; format: functional; details: dose 50-200 µg/ml; time hrs <=72; at 50 to 200 µg/mL
Schistosoma mansoni [15] = experiment: Antischistosomal activity against Schistosoma mansoni LE assessed as reduction in egg development by measuring developed eggs at 100 uM measured after 5 days relative to control; format: functional; design: scale not given: the % may be the effect or the level left; details: time 5 day
Schistosoma mansoni [16] = experiment: Antischistosomal activity against juvenile Schistosoma mansoni LE measured every 24 hrs for 72 hrs by inverted microscopy; format: functional
Schistosoma mansoni [17] = experiment: Antischistosomal activity against Schistosoma mansoni LE infected in BALB/c mouse assessed as reduction in worm burden at 100 mg/kg, ip administered for 5 consecutive days starting from day 23 post infection by microscopic method relative to control; format: functional; design: scale not given: the % may be the effect or the level left
Schistosoma mansoni [18] = experiment: Antischistosomal activity against Schistosoma mansoni LE infected in BALB/c mouse assessed as reduction in worm burden at 10 mg/kg, ip administered for 5 consecutive days starting from day 1 post infection by microscopic method relative to control; format: functional; design: scale not given: the % may be the effect or the level left
Schistosoma mansoni [19] = experiment: Antischistosomal activity against Schistosoma mansoni LE infected in BALB/c mouse assessed as reduction in egg burden at 10 mg/kg, ip administered for 5 consecutive days starting from day 37 post infection by microscopic method relative to control; format: functional; design: scale not given: the % may be the effect or the level left
Schistosoma mansoni [20] = experiment: Antischistosomal activity against Schistosoma mansoni LE infected in BALB/c mouse assessed as reduction in egg burden at 50 mg/kg, ip administered for 5 consecutive days starting from day 23 post infection by microscopic method relative to control; format: functional; design: scale not given: the % may be the effect or the level left
Schistosoma mansoni [21] = experiment: Antischistosomal activity against adult Schistosoma mansoni LE measured every 24 hrs for 72 hrs by inverted microscopy; format: functional
Schistosoma mansoni [22] = experiment: Antischistosomal activity against Schistosoma mansoni LE infected in BALB/c mouse assessed as reduction in egg burden at 50 mg/kg, ip administered for 5 consecutive days starting from day 1 post infection by microscopic method relative to control; format: functional; design: scale not given: the % may be the effect or the level left
Schistosoma mansoni [23] = experiment: Antischistosomal activity against Schistosoma mansoni LE infected in BALB/c mouse assessed as reduction in worm burden at 10 mg/kg, ip administered for 5 consecutive days starting from day 37 by microscopic method relative to control; format: functional; design: scale not given: the % may be the effect or the level left
Schistosoma mansoni [24] = experiment: Antischistosomal activity against Schistosoma mansoni LE infected in BALB/c mouse assessed as reduction in worm burden at 50 mg/kg, ip administered for 5 consecutive days starting from day 1 post infection by microscopic method relative to control; format: functional; design: scale not given: the % may be the effect or the level left
Schistosoma mansoni [25] = experiment: Antischistosomal activity against Schistosoma mansoni LE infected in BALB/c mouse assessed as reduction in worm burden at 100 mg/kg, ip administered for 5 consecutive days starting from day 1 post infection by microscopic method relative to control; format: functional; design: scale not given: the % may be the effect or the level left
Schistosoma mansoni [26] = experiment: Antischistosomal activity against Schistosoma mansoni LE assessed as reduction in egg population at 100 uM measured after 72 hrs by inverted microscopy relative to control; format: functional; design: scale not given: the % may be the effect or the level left
Schistosoma mansoni [27] = experiment: Antischistosomal activity against Schistosoma mansoni LE infected in BALB/c mouse assessed as reduction in egg burden at 10 mg/kg, ip administered for 5 consecutive days starting from day 23 post infection by microscopic method relative to control; format: functional; design: scale not given: the % may be the effect or the level left
Schistosoma mansoni [28] = experiment: Antischistosomal activity against Schistosoma mansoni LE infected in BALB/c mouse assessed as reduction in worm burden at 50 mg/kg, ip administered for 5 consecutive days starting from day 23 post infection by microscopic method relative to control; format: functional; design: scale not given: the % may be the effect or the level left
Schistosoma mansoni [29] = experiment: Antischistosomal activity against Schistosoma mansoni LE infected in BALB/c mouse assessed as reduction in egg burden at 100 mg/kg, ip administered for 5 consecutive days starting from day 1 post infection by microscopic method relative to control; format: functional; design: scale not given: the % may be the effect or the level left
Schistosoma mansoni [30] = experiment: Antischistosomal activity against Schistosoma mansoni LE infected in BALB/c mouse assessed as reduction in worm burden at 50 mg/kg, ip administered for 5 consecutive days starting from day 37 post infection by microscopic method relative to control; format: functional; design: scale not given: the % may be the effect or the level left
Schistosoma mansoni [31] = experiment: Antischistosomal activity against Schistosoma mansoni LE infected in BALB/c mouse assessed as reduction in egg burden at 10 mg/kg, ip administered for 5 consecutive days starting from day 1 post infection by microscopic method relative to control; format: functional; design: scale not given: the % may be the effect or the level left
Schistosoma mansoni [32] = experiment: Antischistosomal activity against Schistosoma mansoni LE schistosomula measured every 24 hrs for 72 hrs by inverted microscopy; format: functional
Schistosoma mansoni [33] = experiment: Antischistosomal activity against Schistosoma mansoni LE infected in BALB/c mouse assessed as reduction in egg burden at 100 mg/kg, ip administered for 5 consecutive days starting from day 23 post infection by microscopic method relative to control; format: functional; design: scale not given: the % may be the effect or the level left
Schistosoma mansoni [34] = experiment: Antischistosomal activity against Schistosoma mansoni LE infected in BALB/c mouse assessed as reduction in egg burden at 50 mg/kg, ip administered for 5 consecutive days starting from day 37 post infection by microscopic method relative to control; format: functional; design: scale not given: the % may be the effect or the level left
Schistosoma mansoni [35] = experiment: Antischistosomal activity against Schistosoma mansoni LE infected in BALB/c mouse assessed as reduction in worm burden at 100 mg/kg, ip administered for 5 consecutive days starting from day 37 post infection by microscopic method relative to control; format: functional; design: scale not given: the % may be the effect or the level left
Schistosoma mansoni [36] = experiment: Antischistosomal activity against Schistosoma mansoni LE infected in BALB/c mouse assessed as reduction in egg burden at 100 mg/kg, ip administered for 5 consecutive days starting from day 37 post infection by microscopic method relative to control; format: functional; design: scale not given: the % may be the effect or the level left
Schistosoma mansoni [37] = experiment: Antischistosomal activity against Schistosoma mansoni LE infected in BALB/c mouse assessed as reduction in worm burden at 10 mg/kg, ip administered for 5 consecutive days starting from day 23 by microscopic method relative to control; format: functional; design: scale not given: the % may be the effect or the level left

C[C@@H](N)CCCCCC/C=C\CCCCCCCCN gave an EC50 (Schistosoma mansoni [1]) of 8.8 µM, an EC50 (Schistosoma mansoni [2]) of 3.6 µM and a mortality at 20 µM (Schistosoma mansoni [3]) of 100%.
In the case of C=C1C(=O)O[C@@H]2C3O[C@]3(C)CC/C=C(\C)CC[C@@H]12 (some centres not stated), the Activity (Schistosoma mansoni [4]) is reported as 64.1%, the Activity (Schistosoma mansoni [5]) is reported as 100% and the Activity (Schistosoma mansoni [6]) is reported as 100%. For the same compound, the mortality (Schistosoma mansoni [7]) was 100%.
COC(=O)/C=C/c1ccc2c(c1)[C@@H](C(=O)OC)[C@H](c1ccc(OC(C)=O)cc1)O2 was tested, and the Activity (Schistosoma mansoni [8]) was 100% and the Activity (Schistosoma mansoni [9]) was 100%.
With O=S(=O)(c1ccc(O)c2ncccc12)C1C(c2ccccc2)=Nc2ccncc2N=C1c1ccccc1 (configuration not stated) the Activity (Schistosoma mansoni [10]) was 100%, the mortality (Schistosoma mansoni [11]) was 100% and the Activity (Schistosoma mansoni [12]) was 54%. For the same compound, the Activity (Schistosoma mansoni [13]) was 81.2% and the Activity (Schistosoma mansoni [14]) was 20%.
Compound O=C1OC[C@@H](Cc2cc3c(cc2[N+](=O)[O-])OCO3)[C@@H]1Cc1cc2c(cc1[N+](=O)[O-])OCO2 has an Activity (Schistosoma mansoni [15]) of under 10%, an LC50 (Schistosoma mansoni [16]) of 180 µM and an Activity (Schistosoma mansoni [17]) of 39%. It also gave an Activity (Schistosoma mansoni [18]) of 33%, an Activity (Schistosoma mansoni [19]) of 40% and an Activity (Schistosoma mansoni [20]) of 52%. For the same compound, the LC50 (Schistosoma mansoni [21]) was 102 µM, the Activity (Schistosoma mansoni [22]) was 52% and the Activity (Schistosoma mansoni [23]) was 33%. The Activity (Schistosoma mansoni [24]) was 36%, the Activity (Schistosoma mansoni [25]) was 39% and the Activity (Schistosoma mansoni [26]) was over 83%. For the same compound, the Activity (Schistosoma mansoni [27]) was 40%, the Activity (Schistosoma mansoni [28]) was 36% and the Activity (Schistosoma mansoni [29]) was 16%. For the same compound, the Activity (Schistosoma mansoni [30]) was 36%, the Activity (Schistosoma mansoni [31]) was 40% and the LC50 (Schistosoma mansoni [32]) was 20.4 µM. It also gave an Activity (Schistosoma mansoni [33]) of 16%, an Activity (Schistosoma mansoni [34]) of 52% and an Activity (Schistosoma mansoni [35]) of 39%. For the same compound, the Activity (Schistosoma mansoni [36]) was 16% and the Activity (Schistosoma mansoni [37]) was 33%.
